Patent US20260083826A1, “NEW SYNTHETIC DRUGS FOR TREATING ALZHEIMER'S DISEASE” (OKINAWA INSTITUTE OF SCIENCE AND TECHNOLOGY SCHOOL …, priority 2022, published 2026)
“Also recorded” adds a separate entry of the source.

Tests used:
[1] = tested on: calyx of Held presynaptic terminals; assay: Membrane capacitance measurements (SV exo-endocytosis) at calyx of Held presynaptic terminals; format: cell-based, mouse; conditions: for Effect on h-tau-induced endocytic slowing: 0.25 mM co-loaded with WT h-tau 20 μM
[2] = tested on: calyx of Held presynaptic terminals; assay: Simultaneous pre- and postsynaptic whole-cell recording of EPSCs at the calyx of Held in brainstem slices; format: cell-based, mouse; conditions: for Prevention of WT h-tau-induced EPSC rundown: 20 μM co-loaded with WT h-tau 20 μM; for EPSC amplitude at 30 min (normalized to baseline): 1 μM intra-terminal; for Effect on h-tau-induced EPSC rundown: 1 mM co-loaded with h-tau 20 μM, 30 min after infusion
porcine tubulin = porcine tubulin (Sus scrofa, UniProt P02550+P02554); assay: Tubulin polymerization assay (MT assembly); format: biochemical
MT-dynamin 1 binding = biological target: T1, MT-dynamin 1 binding (Sus scrofa, UniProt P02550+P02554); assay: MT-dynamin binding assay (microtubule spin-down, SDS-PAGE, SYPRO Orange); design: species or system human
T1 construct: His
Method: Microtubule binding assay was performed using Microtubule Binding Protein Spin Down Assay Kit (cat #BK029, Cytoskeleton Inc., Denver, CO, USA). Briefly, 20 μl of 5 mg/ml tubulin in general tubulin buffer (GTB; 80 mM PIPES pH7.0, 2 mM MgCl2, 0.5 mM EGTA) supplemented with 1 mM GTP were polymerized by adding 2 μl of cushion buffer (80 mM PIPES pH7.0, 1 mM MgCl2, 1 mM EGTA, 60% glycerol), and incubated at 35° C. for 20 min. Microtubules were stabilized with 20 μM Taxol. Taxol-stabilized microtubules (2.5 μM) and dynamin 1 ([…]) were incubated in GTB with or without 1 mM peptide at room temperature for 30 min. After incubation, the 50 μl of mixture was loaded on top of 100 μl cushion buffer supplemented with 20 μM Taxol, and then centrifuged at 100,000×g for 40 min at room temperature. After the ultracentrifugation, 50 μl of supernatant was taken and mixed with 10 μl of 5×sample buffer. The resultant pellet was resuspended with 50 μl of 1×sample buffer. Twenty μl of each sample was analyzed by SDS-PAGE and stained with SYPRO Orange. Protein bands were visualized using FLA-3000 (FUJIFILM Co. LTD, Tokyo, Japan).
MTs were prepared from tubulin and stabilized by taxol. And then taxol stabilized MTs and Dyn1 were incubated with/without PHDP5. Using ultracentrifugation to separate supernatant (unbinding protein) and pellet (bound protein) fractions. Samples were analyzed by SDS-PAGE gel and visualized by SYPRO Orange staining. […] This may cause by competitive binding of Dyn1/PHDP5 to MTs (FIG. 6A).
We changed the incubation order that MTs were mixed with PHDP5 and then incubated with Dyn1.
For optimizing the condition of PHDP5 to block MT-dynamin binding, we have tried different PHDP5 concentration and incubation period with Dyn1. […] Without PHDP5, there is no difference between each time point (FIG. 7B). […] We prepared several FITC-labeled PHDP5 peptide candidates to improve the brain barrier permeability of PHDP5 (Table 3). The N-terminus of the construct was protected with β-alanine (BA) and labeled with FITC. Under the same condition, several FITC-labeled PHDP5 candidates and its' scrambled control were also tested.

Chain of porcine tubulin (P02550 whole entry): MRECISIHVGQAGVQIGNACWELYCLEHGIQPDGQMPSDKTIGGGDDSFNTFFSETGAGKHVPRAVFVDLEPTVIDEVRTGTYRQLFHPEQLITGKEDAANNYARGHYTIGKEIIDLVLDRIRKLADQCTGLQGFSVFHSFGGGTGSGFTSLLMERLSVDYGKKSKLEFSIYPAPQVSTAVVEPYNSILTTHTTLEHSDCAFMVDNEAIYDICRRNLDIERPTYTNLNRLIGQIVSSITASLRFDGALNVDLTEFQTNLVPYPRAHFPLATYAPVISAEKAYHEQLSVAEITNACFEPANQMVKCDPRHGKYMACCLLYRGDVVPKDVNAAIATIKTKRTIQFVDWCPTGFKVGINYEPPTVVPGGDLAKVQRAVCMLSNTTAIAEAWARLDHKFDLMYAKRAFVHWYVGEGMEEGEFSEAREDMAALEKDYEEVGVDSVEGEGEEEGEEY
Chain of porcine tubulin (P02554 whole entry): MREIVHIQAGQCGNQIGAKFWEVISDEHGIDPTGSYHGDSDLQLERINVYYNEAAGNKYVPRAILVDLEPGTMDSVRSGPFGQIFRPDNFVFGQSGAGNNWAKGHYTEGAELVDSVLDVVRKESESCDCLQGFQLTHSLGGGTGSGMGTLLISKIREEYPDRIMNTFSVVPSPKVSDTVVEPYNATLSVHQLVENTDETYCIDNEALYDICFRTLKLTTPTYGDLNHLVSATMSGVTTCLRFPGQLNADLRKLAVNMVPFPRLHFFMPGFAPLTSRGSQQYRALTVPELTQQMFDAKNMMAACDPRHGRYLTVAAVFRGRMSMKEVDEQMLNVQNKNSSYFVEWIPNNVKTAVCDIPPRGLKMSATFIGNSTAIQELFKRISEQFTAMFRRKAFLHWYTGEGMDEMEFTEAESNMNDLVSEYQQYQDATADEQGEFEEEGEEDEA
T1 sequence (P02550 whole entry): as the sequence (P02550 whole entry) above
T1 sequence (P02554 whole entry): as the sequence (P02554 whole entry) above

For `O=C1NC(=S)N(c2cccc(Br)c2)C(=O)/C1=C/c1ccco1` [SMFH2, reference compound], the “Effect on SV endocytosis” value ([1]; calyceal terminals in slices from post-hearing mice (P13-14)) was “slightly prolonged SV endocytosis, but this effect was statistically insignificant”.

For `COC(=O)Nc1nc2ccc(C(=O)c3cccs3)cc2[nH]1` [nocodazole, reference compound], the “Effect on EPSC amplitude, loaded alone” value ([2]; 20 μM alone) was “no effect”, the “Prevention of WT h-tau-induced EPSC rundown” value [2] was “fully prevented” and the “Prevention of WT h-tau-induced EPSC rundown” value ([2]; listed as Nocodazole) was “prevented EPSC rundown”. For the same molecule, the “Effect on exo-endocytosis, loaded alone” value ([1]; 20 μM alone) was “no effect”, the “Prevention of h-tau-induced block of SV endocytosis” value ([1]; 20 μM co-loaded with h-tau 20 μM, 25 min after loading) was “fully prevented” and the “Concentration at which maximal inhibition of h-tau-dependent MT assembly is reached” value (porcine tubulin) was 20 µM. For the same molecule, the “Inhibition of h-tau-dependent MT assembly” value (porcine tubulin; nocodazole 1, 10, 20, 50 μM, ON4R h-tau (20 μM)) was “inhibited h-tau-dependent MT assembly in a concentration-dependent manner; also recorded: Concentration-dependent inhibitory effects”.

In the case of `CC(=O)O[C@H]1C(=O)[C@@]2(C)[C@H]([C@H](OC(=O)c3ccccc3)[C@]3(O)C[C@H](OC(=O)[C@H](O)[C@@H](NC(=O)c4ccccc4)c4ccccc4)C(C)=C1C3(C)C)[C@]1(OC(C)=O)CO[C@@H]1C[C@@H]2O` [taxol, reference compound], the “EPSC amplitude at 30 min (normalized to baseline)” value ([2]; EPSCs evoked at 0.1 Hz) is reported as 104±3.0%, the “EPSC amplitude at 30 min (normalized to baseline)” value ([2]; EPSCs evoked at 0.1 Hz, listed as Taxol) is reported as 105±3.0% and the “EPSC amplitude at 30 min (normalized to baseline)” value ([2]; EPSCs evoked at 1 Hz) is reported as 41±12%. The “EPSC amplitude at 30 min (normalized to baseline)” value ([2]; EPSCs evoked at 1 Hz, listed as Taxol) was 41.4±12% and the “MT assembly in in vitro tubulin polymerization assay” value (porcine tubulin; 1 μM) was “assembles tubulins into MTs; also recorded: MT assembly”.

“PHDP5: synthetic dodecapeptide corresponding to amino acids 560-571 of dynamin 1 (PH domain); inhibits MT-dynamin interaction (EKKYMLSVDNLK)” was tested, and the “Effect on EPSC amplitude, loaded alone” value ([2]; 1 mM alone) was “did not affect”, the “Effect on EPSC amplitude, loaded alone” value ([2]; 1 mM alone, listed as DPHP5) was “no effect” and the “Effect on h-tau-induced EPSC rundown” value [2] was “significantly attenuated”. For the same molecule, the “Effect on h-tau-induced EPSC rundown” value ([2]; listed as DPHP5) was “attenuated”, the “Effect on exo-endocytic capacitance changes, loaded alone” value ([1]; 0.25 mM alone) was “no effect” and the “Effect on h-tau-induced endocytic slowing” value [1] was “significantly attenuated”. For the same molecule, the “Effect on h-tau-induced endocytic slowing” value ([1]; listed as DPHP5) was “significant difference”, the “Inhibition of MT-dynamin 1 interaction” value (MT-dynamin 1 binding; 1 mM peptide) was “significantly inhibited; also recorded: strongly inhibits” and the “% of Dyn1 in pellet fraction” value (MT-dynamin 1 binding; MTs incubated with 1 mM, shorter incubation period with Dyn1 (10 min)) was “lower”. The “% of Dyn1 in pellet fraction” value (MT-dynamin 1 binding; MTs incubated with 3 mM compared with 1 mM) was “lower”, the “% of Dyn1 in pellet fraction” value (MT-dynamin 1 binding; MTs incubated with 3 mM, incubation with Dyn1 for 5 min) was “lower” and the “% of Dyn1 in pellet fraction” value (MT-dynamin 1 binding; MTs mixed with PHDP5 first, then incubated with Dyn1) was “decreased”. For the same molecule, the “Dynamin 1 in precipitates (ppt fraction) relative to total amount” value (MT-dynamin 1 binding; peptide added to MT and dynamin 1, 22.6±2.4% with MT without peptide) was 6.3±2.4% and the “% of Dyn1 in pellet fraction” value (MT-dynamin 1 binding; taxol stabilized MTs and Dyn1 incubated together with/without PHDP5) was “no difference”.

B1: del-MTBD: human tau deletion mutant lacking the MT-binding domain (amino acid 244 to 367) (protein)
chain: MAEPRQEFEVMEDHAGTYGLGDRKDQGGYTMHQDQEGDTDAGLKAEEAGIGDTPSLEDEAAGHVTQARMVSKSKDGTGSDDKKAKGADGKTKIATPRGAAPPGQKGQANATRIPAKTPPAPKTPPSSGEPPKSGDRSGYSSPGSPGTPGSRSRTPSLPTPPTREPKKVAVVRTPPKSPSSAKSRLNKKIETHKLTFRENAKAKTDHGAEIVYKSPVVSGDTSPRHLSNVSSTGSIDMVDSPQLATLADEVSASLAKQGL
For B1, the “Effect on EPSC amplitude, loaded alone” value ([2]; 20 μM alone) was “no effect” and the “MT assembly in in vitro tubulin polymerization assay” value (porcine tubulin; 10 μM, listed as Del-MTBD) was “lacking tubulin polymerization capability”.
